Reference: ChEMBL document CHEMBL1201862, “PubChem BioAssay data set” (2004)
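Five concentrations, 48 hours, 96-well plates. GI50: concentration for 50% inhibition of growth.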 Calls of active or inactive are those of the source. No stated cut-off is given here; in the data, active = GI50 up to about 1.1 µM and inactive = higher.

Assays:
Test in all cases: NCI-60 cell line screen, 48 h
[1] = test system: HCT-15
[2] = test system: TK-10
[3] = test system: OVCAR-8
[4] = test system: NCI-H226
[5] = test system: SK-OV-3
[6] = test system: SK-MEL-5
[7] = test system: SNB-75
[8] = test system: SN12C
[9] = test system: HCT-116
[10] = test system: SF-295
[11] = test system: ACHN
[12] = test system: MDA-MB-231
[13] = test system: M14
[14] = test system: PC-3
[15] = test system: MOLT-4
[16] = test system: OVCAR-4
[17] = test system: KM12
[18] = test system: NCI-H522
[19] = test system: RPMI-8226
[20] = test system: MDA-MB-435
[21] = test system: OVCAR-5
[22] = test system: SW-620
[23] = test system: 786-0
[24] = test system: SF-268
[25] = test system: U-251
[26] = test system: EKVX
[27] = test system: Hs-578T
[28] = test system: DU-145
[29] = test system: SNB-19
[30] = test system: MDA-N
[31] = test system: A498
[32] = test system: IGROV-1
[33] = test system: Malme-3M
[34] = test system: COLO 205
[35] = test system: HOP-92
[36] = test system: HT-29
[37] = test system: HOP-62
[38] = test system: NCI-H23
[39] = test system: K562
[40] = test system: SK-MEL-2
[41] = test system: NCI/ADR-RES
[42] = test system: MCF7
[43] = test system: OVCAR-3
[44] = test system: LOX IMVI
[45] = test system: SK-MEL-28
[46] = test system: CCRF-CEM
[47] = test system: UACC-62
[48] = test system: SR
[49] = test system: UO-31
[50] = test system: A549
[51] = test system: SF-539
[52] = test system: RXF 393
[53] = test system: CAKI-1
[54] = test system: BT-549
[55] = test system: HL-60
[56] = test system: UACC-257
[57] = test system: NCI-H460
[58] = test system: HCC 2998

Cc1ccc(/C=C2\NC(=S)N(CN3CCCCC3)C2=O)cc1
GI50 [1]: 36.1 µM
GI50 [2]: 69.3 µM (inactive)
GI50 [3]: 32.5 µM (inactive)
GI50 [4]: 55.7 µM (inactive)
GI50 [5]: > 100 µM (inactive)
GI50 [6]: 33.3 µM (inactive)
GI50 [7]: > 100 µM (inactive)
GI50 [8]: 63.7 µM (inactive)
GI50 [9]: 36.6 µM (inactive)
GI50 [10]: 44.6 µM (inactive)
GI50 [11]: 43.2 µM (inactive)
GI50 [12]: > 100 µM (inactive)
GI50 [13]: 55.1 µM (inactive)
GI50 [14]: 61.4 µM (inactive)
GI50 [15]: 93.3 µM (inactive)
GI50 [16]: 39.4 µM (inactive)
GI50 [17]: > 100 µM (inactive)
GI50 [18]: 35.8 µM (inactive)
GI50 [19]: 32.2 µM (inactive)
GI50 [20]: 46.5 µM (inactive)
GI50 [21]: > 100 µM (inactive)
GI50 [22]: 28.9 µM (inactive)
GI50 [23]: 47.3 µM (inactive)
GI50 [24]: 64 µM (inactive)
GI50 [25]: 48.6 µM (inactive)
GI50 [26]: 46.3 µM (inactive)
GI50 [27]: 41.4 µM (inactive)
GI50 [28]: 36.1 µM (inactive)
GI50 [29]: 55.5 µM (inactive)
GI50 [30]: 65.2 µM (inactive)
GI50 [31]: 41.3 µM (inactive)
GI50 [32]: > 100 µM (inactive)
GI50 [33]: 85.3 µM (inactive)
GI50 [34]: 17 µM (inactive)
GI50 [35]: 0.416 µM (active)
GI50 [36]: 24.2 µM (inactive)
GI50 [37]: > 100 µM (inactive)
GI50 [38]: > 100 µM (inactive)
GI50 [39]: 43 µM (inactive)
GI50 [40]: > 100 µM (inactive)
GI50 [41]: 57.7 µM (inactive)
GI50 [42]: 28.4 µM (inactive)
GI50 [43]: 65.3 µM (inactive)
GI50 [44]: 34.4 µM (inactive)
GI50 [45]: 79.3 µM (inactive)
GI50 [46]: 12.4 µM (inactive)
GI50 [47]: 33.3 µM (inactive)
GI50 [48]: 83.6 µM (inactive)
GI50 [49]: 63.1 µM (inactive)
GI50 [50]: 51.2 µM (inactive)

COc1ccc(CNc2nc3cc(N)cc(N)c3nc2-c2ccccc2)cc1
GI50 [19]: 4.13 µM (inactive)

CCOC(=O)/C(=C\NC(C)(C)C)c1nc2ccccc2o1
GI50 [1]: 36.6 µM
GI50 [2]: 27.2 µM (inactive)
GI50 [3]: 39 µM (inactive)
GI50 [4]: 20.9 µM (inactive)
GI50 [5]: 92 µM (inactive)
GI50 [51]: 47.4 µM (inactive)
GI50 [6]: 12.8 µM (inactive)
GI50 [7]: 31.9 µM (inactive)
GI50 [8]: 50.1 µM (inactive)
GI50 [52]: 24.7 µM (inactive)
GI50 [53]: 60.4 µM (inactive)
GI50 [9]: 37.3 µM (inactive)
GI50 [10]: 34 µM (inactive)
GI50 [11]: 27.6 µM (inactive)
GI50 [13]: 48 µM (inactive)
GI50 [16]: 31.4 µM (inactive)
GI50 [17]: 33.3 µM (inactive)
GI50 [18]: 29.6 µM (inactive)
GI50 [19]: 22.2 µM (inactive)
GI50 [54]: 26.7 µM (inactive)
GI50 [20]: 33.3 µM (inactive)
GI50 [55]: 2.42 µM (inactive)
GI50 [21]: 60 µM (inactive)
GI50 [22]: 49.7 µM (inactive)
GI50 [23]: 24.6 µM (inactive)
GI50 [24]: 37.8 µM (inactive)
GI50 [56]: 20.1 µM (inactive)
GI50 [26]: > 100 µM (inactive)
GI50 [27]: 28.3 µM (inactive)
GI50 [28]: 43.4 µM (inactive)
GI50 [29]: 64 µM (inactive)
GI50 [30]: 32 µM (inactive)
GI50 [57]: 25.7 µM (inactive)
GI50 [31]: 27.9 µM (inactive)
GI50 [32]: 51.9 µM (inactive)
GI50 [33]: 35.7 µM (inactive)
GI50 [34]: 21.3 µM (inactive)
GI50 [35]: 33.5 µM (inactive)
GI50 [36]: 27.7 µM (inactive)
GI50 [37]: > 100 µM (inactive)
GI50 [38]: 34.9 µM (inactive)
GI50 [41]: 35.6 µM (inactive)
GI50 [42]: 29.3 µM (inactive)
GI50 [43]: 35.4 µM (inactive)
GI50 [44]: 27.4 µM (inactive)
GI50 [45]: 36.5 µM (inactive)
GI50 [46]: 16.3 µM (inactive)
GI50 [47]: 18.4 µM (inactive)
GI50 [48]: 25.6 µM (inactive)
GI50 [49]: 0.124 µM (active)
GI50 [50]: 42.4 µM (inactive)

CCOC(=O)[C@@H]1OC(c2ccccc2)O[C@H]1C(=O)OCC
GI50 [1]: > 100 µM
GI50 [2]: > 100 µM (inactive)
GI50 [3]: > 100 µM (inactive)
GI50 [4]: > 100 µM (inactive)
GI50 [5]: > 100 µM (inactive)
GI50 [6]: > 100 µM (inactive)
GI50 [7]: > 100 µM (inactive)
GI50 [8]: > 100 µM (inactive)
GI50 [9]: > 100 µM (inactive)
GI50 [10]: > 100 µM (inactive)
GI50 [11]: > 100 µM (inactive)
GI50 [12]: > 100 µM (inactive)
GI50 [13]: > 100 µM (inactive)
GI50 [14]: > 100 µM (inactive)
GI50 [15]: > 100 µM (inactive)
GI50 [16]: > 100 µM (inactive)
GI50 [17]: > 100 µM (inactive)
GI50 [19]: > 100 µM (inactive)
GI50 [20]: > 100 µM (inactive)
GI50 [21]: > 100 µM (inactive)
GI50 [22]: > 100 µM (inactive)
GI50 [23]: > 100 µM (inactive)
GI50 [24]: > 100 µM (inactive)
GI50 [25]: > 100 µM (inactive)
GI50 [56]: > 100 µM (inactive)
GI50 [26]: > 100 µM (inactive)
GI50 [27]: > 100 µM (inactive)
GI50 [28]: > 100 µM (inactive)
GI50 [29]: > 100 µM (inactive)
GI50 [30]: > 100 µM (inactive)
GI50 [31]: > 100 µM (inactive)
GI50 [32]: > 100 µM (inactive)
GI50 [33]: > 100 µM (inactive)
GI50 [34]: > 100 µM (inactive)
GI50 [35]: > 100 µM (inactive)
GI50 [36]: > 100 µM (inactive)
GI50 [37]: > 100 µM (inactive)
GI50 [38]: > 100 µM (inactive)
GI50 [39]: > 100 µM (inactive)
GI50 [40]: > 100 µM (inactive)
GI50 [41]: > 100 µM (inactive)
GI50 [42]: > 100 µM (inactive)
GI50 [43]: > 100 µM (inactive)
GI50 [44]: > 100 µM (inactive)
GI50 [45]: > 100 µM (inactive)
GI50 [46]: > 100 µM (inactive)
GI50 [47]: > 100 µM (inactive)
GI50 [48]: > 100 µM (inactive)
GI50 [49]: > 100 µM (inactive)
GI50 [50]: > 100 µM (inactive)

CC(=O)OC(/C=C/c1ccccc1)=C(OC(C)C)/C1=C(\c2ccccc2)SCCCSC1=O
GI50 [1]: > 100 µM
GI50 [2]: > 100 µM (inactive)
GI50 [3]: > 100 µM (inactive)
GI50 [4]: > 100 µM (inactive)
GI50 [5]: > 100 µM (inactive)
GI50 [51]: > 100 µM (inactive)
GI50 [6]: > 100 µM (inactive)
GI50 [7]: 52.6 µM (inactive)
GI50 [52]: 74.3 µM (inactive)
GI50 [53]: > 100 µM (inactive)
GI50 [9]: > 100 µM (inactive)
GI50 [10]: 56.8 µM (inactive)
GI50 [11]: > 100 µM (inactive)
GI50 [12]: > 100 µM (inactive)
GI50 [13]: > 100 µM (inactive)
GI50 [14]: > 100 µM (inactive)
GI50 [15]: > 100 µM (inactive)
GI50 [16]: 83.4 µM (inactive)
GI50 [17]: > 100 µM (inactive)
GI50 [19]: 35.6 µM (inactive)
GI50 [54]: 44.6 µM (inactive)
GI50 [58]: > 100 µM (inactive)
GI50 [20]: > 100 µM (inactive)
GI50 [55]: 49.8 µM (inactive)
GI50 [21]: > 100 µM (inactive)
GI50 [22]: > 100 µM (inactive)
GI50 [23]: > 100 µM (inactive)
GI50 [24]: > 100 µM (inactive)
GI50 [25]: > 100 µM (inactive)
GI50 [56]: > 100 µM (inactive)
GI50 [26]: 53.2 µM (inactive)
GI50 [27]: > 100 µM (inactive)
GI50 [28]: > 100 µM (inactive)
GI50 [29]: > 100 µM (inactive)
GI50 [57]: > 100 µM (inactive)
GI50 [31]: > 100 µM (inactive)
GI50 [33]: > 100 µM (inactive)
GI50 [34]: > 100 µM (inactive)
GI50 [35]: > 100 µM (inactive)
GI50 [36]: > 100 µM (inactive)
GI50 [37]: > 100 µM (inactive)
GI50 [38]: > 100 µM (inactive)
GI50 [39]: > 100 µM (inactive)
GI50 [40]: > 100 µM (inactive)
GI50 [41]: > 100 µM (inactive)
GI50 [42]: 36 µM (inactive)
GI50 [43]: > 100 µM (inactive)
GI50 [44]: > 100 µM (inactive)
GI50 [45]: > 100 µM (inactive)
GI50 [46]: 91 µM (inactive)
GI50 [47]: 63 µM (inactive)
GI50 [49]: > 100 µM (inactive)
GI50 [50]: > 100 µM (inactive)
